Assay results taken from PubChem BioAssay AID1259407 (Chemical Carcinogenesis Research Information System (CCRIS), 2018).
The source made the active and inactive calls. No rule for the calls is given here.

Test system: CCRIS mutagenicity, Ames/micronucleus/aberration tests
Experiment: CCRIS mutagenicity studies
[1] = Test System: AMES SALMONELLA TYPHIMURIUM, Strain/Indicator: TA100, Metabolic Activation: NONE, Method: STANDARD PLATE
[2] = Test System: AMES SALMONELLA TYPHIMURIUM, Strain/Indicator: TA102, Metabolic Activation: NONE, Method: STANDARD PLATE

SMILES: CN1CCC(CN2c3ccccc3Sc3ccccc32)C1 (centres undefined)
- mutagenic call (End Point: IN VITRO CHROMOSOMAL ABERRATIONS, Test System: CHINESE HAMSTER OVARY CELLS, Metabolic Activation: NONE): inactive; negative
- mutagenic call (End Point: IN VITRO CHROMOSOMAL ABERRATIONS, Test System: CHINESE HAMSTER OVARY CELLS, Metabolic Activation: RAT, LIVER, S-9, AROCLOR 1254): inactive; negative
- mutagenic call (Test System: AMES SALMONELLA TYPHIMURIUM, Strain/Indicator: TA97, Metabolic Activation: HAMSTER, LIVER, S-9, AROCLOR 1254 (10 OR 30%), Method: PREINCUBATION): inactive; negative
- mutagenic call (Test System: AMES SALMONELLA TYPHIMURIUM, Strain/Indicator: TA97, Metabolic Activation: NONE, Method: PREINCUBATION): inactive; negative
- mutagenic call (Test System: AMES SALMONELLA TYPHIMURIUM, Strain/Indicator: TA97, Metabolic Activation: RAT, LIVER, S-9, AROCLOR 1254 (10 OR 30%), Method: PREINCUBATION): inactive; negative
- mutagenic call (Test System: AMES SALMONELLA TYPHIMURIUM, Strain/Indicator: TA98, Metabolic Activation: HAMSTER, LIVER, S-9, AROCLOR 1254 (10%), Method: PREINCUBATION): inactive; negative
- mutagenic call (Test System: AMES SALMONELLA TYPHIMURIUM, Strain/Indicator: TA98, Metabolic Activation: HAMSTER, LIVER, S-9, AROCLOR 1254 (30%), Method: PREINCUBATION): inactive; negative
- mutagenic call (Test System: AMES SALMONELLA TYPHIMURIUM, Strain/Indicator: TA98, Metabolic Activation: NONE, Method: PREINCUBATION): inactive; negative
- mutagenic call (Test System: AMES SALMONELLA TYPHIMURIUM, Strain/Indicator: TA98, Metabolic Activation: RAT, LIVER, S-9, AROCLOR 1254 (10%), Method: PREINCUBATION): inactive; negative
- mutagenic call (Test System: AMES SALMONELLA TYPHIMURIUM, Strain/Indicator: TA98, Metabolic Activation: RAT, LIVER, S-9, AROCLOR 1254 (30%), Method: PREINCUBATION): inactive; negative
- mutagenic call (Test System: AMES SALMONELLA TYPHIMURIUM, Strain/Indicator: TA100, Metabolic Activation: HAMSTER, LIVER, S-9, AROCLOR 1254 (10%), Method: PREINCUBATION): inactive; negative
- mutagenic call (Test System: AMES SALMONELLA TYPHIMURIUM, Strain/Indicator: TA100, Metabolic Activation: HAMSTER, LIVER, S-9, AROCLOR 1254 (30%), Method: PREINCUBATION): inactive; negative
- mutagenic call (Test System: AMES SALMONELLA TYPHIMURIUM, Strain/Indicator: TA100, Metabolic Activation: NONE, Method: PREINCUBATION): inactive; negative
- mutagenic call (Test System: AMES SALMONELLA TYPHIMURIUM, Strain/Indicator: TA100, Metabolic Activation: RAT, LIVER, S-9, AROCLOR 1254 (10%), Method: PREINCUBATION): inactive; negative
- mutagenic call (Test System: AMES SALMONELLA TYPHIMURIUM, Strain/Indicator: TA100, Metabolic Activation: RAT, LIVER, S-9, AROCLOR 1254 (30%), Method: PREINCUBATION): inactive; negative
- mutagenic call (Test System: AMES SALMONELLA TYPHIMURIUM, Strain/Indicator: TA1535, Metabolic Activation: HAMSTER, LIVER, S-9, AROCLOR 1254 (10%), Method: PREINCUBATION): inactive; negative
- mutagenic call (Test System: AMES SALMONELLA TYPHIMURIUM, Strain/Indicator: TA1535, Metabolic Activation: HAMSTER, LIVER, S-9, AROCLOR 1254 (30%), Method: PREINCUBATION): inactive; negative
- mutagenic call (Test System: AMES SALMONELLA TYPHIMURIUM, Strain/Indicator: TA1535, Metabolic Activation: NONE, Method: PREINCUBATION): inactive; negative
- mutagenic call (Test System: AMES SALMONELLA TYPHIMURIUM, Strain/Indicator: TA1535, Metabolic Activation: RAT, LIVER, S-9, AROCLOR 1254 (10%), Method: PREINCUBATION): inactive; negative
- mutagenic call (Test System: AMES SALMONELLA TYPHIMURIUM, Strain/Indicator: TA1535, Metabolic Activation: RAT, LIVER, S-9, AROCLOR 1254 (30%), Method: PREINCUBATION): inactive; negative
- mutagenic call (Test System: AMES SALMONELLA TYPHIMURIUM, Strain/Indicator: TA1537, Metabolic Activation: HAMSTER, LIVER, S-9, AROCLOR 1254 (10%), Method: PREINCUBATION): inactive; negative
- mutagenic call (Test System: AMES SALMONELLA TYPHIMURIUM, Strain/Indicator: TA1537, Metabolic Activation: NONE, Method: PREINCUBATION): inactive; negative
- mutagenic call (Test System: AMES SALMONELLA TYPHIMURIUM, Strain/Indicator: TA1537, Metabolic Activation: RAT, LIVER, S-9, AROCLOR 1254 (10%), Method: PREINCUBATION): inactive; negative

SMILES: CC1(C)CC(O)CC(C)(C)N1[O]
- mutagenic call [1]: active; positive
- mutagenic call [2]: inactive; negative
- mutagenic call (Test System: AMES SALMONELLA TYPHIMURIUM, Strain/Indicator: TA102, Metabolic Activation: XANTHINE OXIDASE, Method: STANDARD PLATE): inactive; negative
- mutagenic call (Test System: AMES SALMONELLA TYPHIMURIUM, Strain/Indicator: TA104, Metabolic Activation: NONE, Method: STANDARD PLATE): inactive; negative
- mutagenic call (Test System: AMES SALMONELLA TYPHIMURIUM, Strain/Indicator: TA104, Metabolic Activation: XANTHINE OXIDASE, Method: STANDARD PLATE): inactive; negative
- mutagenic call (Test System: Mouse lymphoma, Strain/Indicator: L5178Y (tk+/tk-), Metabolic Activation: None, Method: Suspension/plate): active; positive
- mutagenic call (Test System: Mouse lymphoma, Strain/Indicator: L5178Y (tk+/tk-), Metabolic Activation: Rat, Liver, S-9, Aroclor 1254, Method: Suspension/plate): active; positive

SMILES: CN(CCCl)c1ccc(/C=C/C2=[N+](C)c3ccccc3C2(C)C)cc1
- mutagenic call (Test System: Ames Salmonella typhimurium, Strain/Indicator: TA98, Metabolic Activation: None, Method: Preincubation): inactive; negative
- mutagenic call (Test System: Ames Salmonella typhimurium, Strain/Indicator: TA98, Metabolic Activation: Rat, Liver, S-9, Aroclor 1254, Method: Preincubation): inactive; negative
- mutagenic call (Test System: Ames Salmonella typhimurium, Strain/Indicator: TA100, Metabolic Activation: None, Method: Preincubation): inactive; negative
- mutagenic call (Test System: Ames Salmonella typhimurium, Strain/Indicator: TA100, Metabolic Activation: Rat, Liver, S-9, Aroclor 1254, Method: Preincubation): inactive; negative
- mutagenic call (Test System: Ames Salmonella typhimurium, Strain/Indicator: TA102, Metabolic Activation: None, Method: Preincubation): inactive; negative
- mutagenic call (Test System: Ames Salmonella typhimurium, Strain/Indicator: TA102, Metabolic Activation: Rat, Liver, S-9, Aroclor 1254, Method: Preincubation): inactive; negative
- mutagenic call (Test System: Ames Salmonella typhimurium, Strain/Indicator: TA1535, Metabolic Activation: None, Method: Preincubation): inactive; negative
- mutagenic call (Test System: Ames Salmonella typhimurium, Strain/Indicator: TA1535, Metabolic Activation: Rat, Liver, S-9, Aroclor 1254, Method: Preincubation): inactive; negative

SMILES: CC[C@@H](C)OS(C)(=O)=O
- mutagenic call [1]: inactive; negative
- mutagenic call (Test System: AMES SALMONELLA TYPHIMURIUM, Strain/Indicator: TA1535, Metabolic Activation: NONE, Method: STANDARD PLATE): active; positive
- mutagenic call (Test System: CHINESE HAMSTER V-79, Strain/Indicator: V-79/6-THIOGUANINE, Metabolic Activation: NONE): active; positive

SMILES: COC(=O)COc1ccc(Cl)cc1Cl
- mutagenic call (Test System: AMES SALMONELLA TYPHIMURIUM, Strain/Indicator: TA97, Metabolic Activation: NONE, Method: STANDARD PLATE): inactive; negative
- mutagenic call (Test System: AMES SALMONELLA TYPHIMURIUM, Strain/Indicator: TA97, Metabolic Activation: RAT, LIVER, S-9, AROCLOR 1254, Method: STANDARD PLATE): inactive; negative
- mutagenic call (Test System: AMES SALMONELLA TYPHIMURIUM, Strain/Indicator: TA98, Metabolic Activation: NONE, Method: STANDARD PLATE): inactive; negative
- mutagenic call (Test System: AMES SALMONELLA TYPHIMURIUM, Strain/Indicator: TA98, Metabolic Activation: RAT, LIVER, S-9, AROCLOR 1254, Method: STANDARD PLATE): inactive; negative
- mutagenic call [1]: inactive; negative
- mutagenic call (Test System: AMES SALMONELLA TYPHIMURIUM, Strain/Indicator: TA100, Metabolic Activation: RAT, LIVER, S-9, AROCLOR 1254, Method: STANDARD PLATE): inactive; negative
- mutagenic call [2]: inactive; negative
- mutagenic call (Test System: AMES SALMONELLA TYPHIMURIUM, Strain/Indicator: TA102, Metabolic Activation: RAT, LIVER, S-9, AROCLOR 1254, Method: STANDARD PLATE): inactive; negative
